Earlier results on 3 compounds are cited in patent US20140220152A1, “Compositions and Methods for Detecting, Treating, or Preventing Reductive Stress” (University of Utah Research Foundation, priority 2007, published 2014).

Series [1] deals with mammalian glucose-6-phosphate dehydrogenase (G6PDH) (Homo sapiens, UniProt P11413).
For series [2] the following is noted: rodents.
For series [3] the following is noted: humans taking repeated doses of 250 mg disulfuram daily.

Sequence of mammalian glucose-6-phosphate dehydrogenase (G6PDH) (P11413 whole entry): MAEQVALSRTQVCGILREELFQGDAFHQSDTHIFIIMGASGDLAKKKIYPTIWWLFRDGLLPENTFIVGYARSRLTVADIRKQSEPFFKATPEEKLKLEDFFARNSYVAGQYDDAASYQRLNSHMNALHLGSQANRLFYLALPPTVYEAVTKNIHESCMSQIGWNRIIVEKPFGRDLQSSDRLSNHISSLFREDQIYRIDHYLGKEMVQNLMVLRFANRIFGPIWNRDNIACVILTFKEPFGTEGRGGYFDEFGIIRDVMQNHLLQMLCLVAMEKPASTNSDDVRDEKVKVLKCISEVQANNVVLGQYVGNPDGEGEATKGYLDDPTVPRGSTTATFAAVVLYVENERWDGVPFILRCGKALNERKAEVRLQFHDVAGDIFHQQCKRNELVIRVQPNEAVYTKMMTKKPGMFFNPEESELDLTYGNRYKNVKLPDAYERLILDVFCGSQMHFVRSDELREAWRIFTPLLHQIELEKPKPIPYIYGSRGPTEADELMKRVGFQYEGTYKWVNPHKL

For `C[C@]12CC[C@H](O)C[C@@H]1CC[C@@H]1[C@@H]2CC[C@]2(C)C(=O)[C@H](Br)C[C@@H]12` [16α-bromoepiandrosterone], in series [1], the “inhibition of mammalian G6PDH” value is given as “more potent inhibitor of mammalian G6PDH than DHEA”.

Consider `C[C@]12CC[C@H](O)CC1=CC[C@@H]1[C@@H]2CC[C@]2(C)C(=O)CC[C@@H]12` [DHEA, Dehydroepiandrosterone], for which the “inhibition of mammalian G6PDH” value in series [1] is “potent non-competitive inhibitor”.

For `CCN(CC)C(=S)SSC(=S)N(CC)CC` [Disulfuram, tetraalkylthiuram disulfide], in series [2], the LD50 – broadly, the dose at which mortality reaches 50% – was 8600 mg/kg. Besides, the Steady-state serum levels result in series [3] is recorded as “approximately 1.3 μM”.
